Marks after values point to notes of the source that are not given here.
Experiments:
[1] = Comparative bioavailability of bortezomib and boronic ester of Formula XI in rat, Example 10 (i.v.; p.o. in saline); format: in vivo, male Sprague Dawley rats; conditions: male, Sprague Dawley, iv, bortezomib in plasma, 0.8 mg/kg, mean ± SEM
Method: Three adult male Sprague Dawley rats were used in each treatment group. The rats were fasted overnight prior to oral dose administration. Intravenous administration was via the lateral tail vein and oral doses were administered by gavage. The compound was administered iv in a vehicle of 3% DMSO:30% Solutol:67% phosphate buffered saline. Oral dosing was in phosphate buffered saline.
For blood collection, each rat (unanesthetized) was placed in a clear Plexiglas® restraining tube, and blood samples (approximately 0.25 mL) were drawn from a lateral tail vein into heparinized collection tubes at predetermined sampling times (0.083, 0.25, 0.5, 1, 2, 4, and 6 hours post dose). No pre-dose samples were obtained. The exception to this procedure was the last sampling time in which the animals were sacrificed by decapitation and trunk blood was obtained rather than blood via a tail vein. The blood samples were placed on wet ice until centrifuged to separate plasma. The plasma fraction was transferred into clean dry tubes, frozen on dry ice and stored at approximately −20° C. pending analysis.
Plasma was prepared for high performance liquid chromatography (HPLC)/mass spectrometric analysis according to standard protocol following protein precipitation with acetonitrile containing an internal standard. The plasma samples were then analyzed for both bortezomib and alprenolol (internal standard) via HPLC coupled with tandem mass spectrometry.
The plasma concentration data for all rats were entered into Excel spreadsheets in preparation for pharmacokinetic analysis. Pharmacokinetic parameters for bortezomib were estimated for each rat by non-compartmental analysis (Gibaldi M, Perrier D. Pharmacokinetics, 2nd edition, Marcel Dekker, New York, Chapter 11, 1982) of the plasma concentration versus time data using WinNonlin software (Professional Version 4.1, Pharsight Corporation, Palo Alto, Calif., 1997).
The maximum plasma concentration (Cmax) was the highest observed plasma concentration after an oral dose; tmax was the corresponding time when Cmax was observed. The terminal rate constant for elimination from plasma (β) was estimated by linear regression of the terminal portion of the semi-logarithmic plasma concentration versus time curve. The apparent terminal half-life (t1/2) was calculated as 0.693 divided by β. The area under the plasma concentration versus time curve from time zero to the time of the last measurable concentration (AUC0-t) after a single dose was determined by the linear trapezoidal rule. The area from zero to infinity (AUC0-∞) was calculated as the sum of AUC0-t and the area extrapolated from the last measurable concentration to infinity (Clast/β). Concentrations pre dose were all assumed to be zero for the purpose of calculation of the AUC. Oral bioavailability was determined by dividing the dose normalized oral AUC0-∞ by the AUC0-∞ from iv dosing and multiplying by 100 to express the ratio as a percent.

[2] = Comparative storage stability of Compound 1, Batches A, B, C (Example 9A); format: physicochemical
Method: Three (3) separate batches of Compound 1 were tested for storage stability. The batches are identified as Batch A, Batch B, and Batch C below. Bulk solid state drug substance was put in polyethylene (PE) double bag in high-density polyethylene (HDPE) containers and the containers were stored under the indicated conditions.

[3] = Occupational exposure limit (OEL)
[4] = Batch B, 5° C./ambient RH, 1 Month
[5] = Batch B, 5° C./ambient RH, 3 Month
[6] = Batch B, 5° C./ambient RH, 6 Month
[7] = Batch C, 5° C./ambient RH, 1 Month
[8] = Batch C, 5° C./ambient RH, 3 Month
[9] = Batch C, 5° C./ambient RH, 6 Month
[10] = Batch C, 5° C./ambient RH, 12 Month

CC(C)C[C@H](NC(=O)[C@H](Cc1ccccc1)NC(=O)c1cnccn1)B(O)O [bortezomib, [(1R)-3-methyl-1-({(2S)-3-phenyl-2-[(pyrazin-2-ylcarbonyl)amino]propanoyl}amino)butyl]boronic acid]
AUC(0-inf) ([1]; n = 3): 472 ± 127 ng·h/mL
AUC(0-t) ([1]; n = 3): 459 ± 127 ng·h/mL
Vd ([1]; n = 3): 2.4 ± 0.8 L/kg
clearance ([1]; n = 3): 34 ± 11 mL/min/kg
half-life ([1]; n = 3, read-out: t1/2, h (converted)): 48 ± 6 min

CC(C)C[C@H](NC(=O)[C@@H](NC(=O)c1cccc(-c2ccccc2)n1)[C@@H](C)O)B(O)O [Compound 1, [(1R)-1-[[(2S,3R)-3-hydroxy-2-[6-phenyl-pyridine-2-carbonyl)amino]-1-oxobutyl]amino]-3-methylbutylboronic acid]
HPLC Purity (%) ([2]; Batch A, 4° C./ambient RH, 3 M): 94.5%
Appearance ([2]; Batch A, 4° C./ambient RH, 3 Months): White to off-
HPLC Purity (%) ([2]; Batch A, 4° C./ambient RH, 6 M): 94.1%
Appearance ([2]; Batch A, 4° C./ambient RH, 6 Months): White to off-
HPLC Purity (%) ([2]; Batch A, 25° C./60% RH, 3 M): 94.4%
Appearance ([2]; Batch A, 25° C./60% RH, 3 Months): White to off-
HPLC Purity (%) ([2]; Batch A, 25° C./60% RH, 6 M): 94.1%
Appearance ([2]; Batch A, 25° C./60% RH, 6 Months): White to off-
HPLC Purity (%) ([2]; Batch A, 40° C./75% RH, 3 M): 93.2%
Appearance ([2]; Batch A, 40° C./75% RH, 3 Months): White to off-
HPLC Purity (%) ([2]; Batch A, 40° C./75% RH, 6 M): 88.7%
Appearance ([2]; Batch A, 40° C./75% RH, 6 Months): White to off-
Appearance ([2]; Batch A, T0): White to off-
HPLC Purity (%) ([2]; Batch A, T0 (estimated)): 95.3* %
Appearance [2, 4]: White powder
Assay by HPLC (anhydrous) (%) [2, 4]: 97.1%
Assay by HPLC (as-is) (%) [2, 4]: 90.6%
Total Impurities (%) [2, 4]: 3.0%
Water Content (%) [2, 4]: 6.0%
Appearance [2, 5]: White
Assay by HPLC (anhydrous) (%) [2, 5]: 94.0%
Assay by HPLC (as-is) (%) [2, 5]: 87.5%
Total Impurities (%) [2, 5]: 5.9%
Water Content (%) [2, 5]: 6.1%
Appearance [2, 6]: White powder
Assay by HPLC (anhydrous) (%) [2, 6]: 93.5%
Assay by HPLC (as-is) (%) [2, 6]: 85.1%
Total Impurities (%) [2, 6]: 7.3%
Water Content (%) [2, 6]: 8.2%
Appearance ([2]; Batch B, 5° C./ambient RH, T0): White
Assay by HPLC (anhydrous) (%) ([2]; Batch B, 5° C./ambient RH, T0): 101.7%
Assay by HPLC (as-is) (%) ([2]; Batch B, 5° C./ambient RH, T0): 94.4%
Total Impurities (%) ([2]; Batch B, 5° C./ambient RH, T0): 0.6%
Water Content (%) ([2]; Batch B, 5° C./ambient RH, T0): 6.5%
Appearance [2, 7]: White to yellow
Assay by HPLC (anhydrous) (%) [2, 7]: 97.0%
Assay by HPLC (as-is) (%) [2, 7]: 91.4%
HPLC Purity (%) [2, 7]: 97.2%
Water Content (%) [2, 7]: 4.59%
Appearance [2, 8]: White to yellow
Assay by HPLC (anhydrous) (%) [2, 8]: 102.4%
Assay by HPLC (as-is) (%) [2, 8]: 94.6%
HPLC Purity (%) [2, 8]: 96.2%
Water Content (%) [2, 8]: 6.48%
Appearance [2, 9]: Off-white
Assay by HPLC (anhydrous) (%) [2, 9]: 99.9%
Assay by HPLC (as-is) (%) [2, 9]: 91.0%
HPLC Purity (%) [2, 9]: 96.3%
Water Content (%) [2, 9]: 7.74%
Appearance [2, 10]: Off-white
Assay by HPLC (anhydrous) (%) [2, 10]: 95.9%
Assay by HPLC (as-is) (%) [2, 10]: 87.0%
HPLC Purity (%) [2, 10]: 96.2%
Water Content (%) [2, 10]: 8.16%
Appearance ([2]; Batch C, 5° C./ambient RH, T0): Yellowish
Assay by HPLC (anhydrous) (%) ([2]; Batch C, 5° C./ambient RH, T0): 98.1%
Assay by HPLC (as-is) (%) ([2]; Batch C, 5° C./ambient RH, T0): 92.9%
HPLC Purity (%) ([2]; Batch C, 5° C./ambient RH, T0): 98.2%
Water Content (%) ([2]; Batch C, 5° C./ambient RH, T0): 4.16%
increase of total impurities ([2]; within six months, refrigerated conditions): more than 10 fold
occupational exposure limit (OEL) [3]: 0.3 μg/m^3

From patent US8541590B2, “Proteasome inhibitors and processes for their preparation, purification and use” (Cephalon, Inc., priority 2009, dated 2013)
